Each structure is given as a SMILES string. Residues, ends and D or L forms follow the SMILES beside them.

One assay deals with HAEC. Nature of the assay: Inhibition of TKPPR-bubble binding to HAEC in static culture by competing agents. The settings on record: for inhibition of bubble binding: 10 μM free TKPPR; for Bubbles Bound (average of duplicate): 1% BRU-114 bubbles. The format is cell-based, human. How it is done: Vials of the compositions of example 5 and of example 6 may be reconstituted with 5 mL of sterile saline, injected using a 20-guage 1.5 inch needle. Bubbles may be then formed within the vials by shaking by hand vigorously for 30 seconds. 1 to 5 mL of the bubble formulation may be removed from each vial and diluted with 3 volumes of D-PBS (without calcium or magnesium) within 1 hour of use.
Chamber slides containing confluent HAEC may be drained of culture medium, which was immediately replaced with one of the final bubble solutions prepared above. The wells may be slightly overfilled such that the liquid meniscus protrudes slightly above the plastic well-forming scaffold of the slide. Bubble solutions may be only added to alternate wells to minimize liquid cross-talk. The wells may be sealed with a piece of Parafilm and the slide incubated 20 minutes, inverted (according to Klibanov A. L., Advanced drug Delivery Reviews, 37, 1999, 139-157) to allow the bubbles to rise and make contact with the cells, after which the solutions may be poured off. Weakly associated bubbles may be removed by washing each well twice with 0.5 mL of D-PBS, swirling gently each time before pouring off. Additional D-PBS (0.5 mL) may be added to wells after the washes to keep the cells submerged until microscopic evaluation.
Composition I of Example 5 was repeated exactly as described except that 0.5 mg DPPE-GTKPPR was added (instead of 2.5 mg) yielding compositions with 1% DPPE-GTKPPR. Vials of this composition as well as that of composition I ofExample 5 (5% DPPE-GTKPPR) were reconstituted with 5 mL of sterile saline, injected using a 20-guage 1.5 inch needle. Bubbles were then formed within the vials by shaking by hand vigorously for 30 seconds. 1 to 5 mL of the bubble formulation was removed from each vial and diluted with 3 volumes of D-PBS (without calcium or magnesium) within 1 hour of use.
Chamber slides containing confluent HAEC were drained of culture medium, which was immediately replaced with one of the final bubble solutions prepared above. The wells were slightly overfilled such that the liquid meniscus protruded slightly above the plastic well-forming scaffold of the slide. Bubble solutions were only added to alternate wells to minimize liquid cross-talk. The wells were sealed with a piece of Parafilm and the slide was incubated 20 minutes, inverted to allow the bubbles to rise and make contact with the cells, after which the solutions were poured off. Weakly associated bubbles were removed by washing each well twice with 0.5 mL of D-PBS, swirling gently each time pouring off. Additional D-PBS (0.5 mL) was added to wells after the washes to keep the cells submerged until microscopic evaluation.
Assays were performed as described for Example 7 using microbubble compositions containing 2% BRU-114 (Composition I of Example 5) as a % of total phospholipid in the composition.
Compositions were reconstituted and assays were performed as described in Example 7 using microbubble compositions containing 1% BRU-114 (Composition I of Example 5) as a % of total phospholipid in the composition.
Assays were performed as described for Example 7 using microbubble compositions containing 2% BRU-114 (as a % of total phospholipid in the composition).

The test system of assay [1] is Human aortic endothelial cells (HAEC). Nature of the assay: TKPPR-conjugated fluorescent bead binding to HAEC, static. It counts as cell-based. How it is done:
Human aortic endothelial cells (HAEC) from Biowhittaker were grown as monolayers in EGM-MV medium from Biowhittaker according to the supplier's instructions.
Briefly, a frozen cryovial of cells (500,000 cells in about 1 mL) was thawed for 2-3 minutes in a 37° C. water bath and cells were seeded into a T-75 flask coated with collagen I (commercially available) containing 15 mL EGM-MV of medium pre-equilibrated with 5% CO2 atmosphere. Cells were incubated in a standard tissue culture incubator at 37° C. HAEC were subcultured for up to 3 additional passages, using the following protocol:
For binding studies and characterization, pelleted cells were diluted to a concentration of 16,560 cells per mL, and 0.5 mL was seeded into each well of an 8-well chamber slide (Collagen I-coated, Becton Dickinson) to generate a seeding density of 12,000 cells/cm^2. Cells seeded into chamber slides were used for assays after 7 to 10 days, and were not further propagated.
TKPPR (see preparation described in the Example 1) was attached to red fluorescent carboxylate-modified FluoSpheres™ (Molecular Probes), which are 2.0 μm microspheres provided at 3.9×10^9 particles/mL of distilled water. 1.0 mg TKPPR was combined with 0.5 mLof 50 mM MES buffer (2-[N-Morpholino]ethanesulfonic acid, (commercially available), pH 6.0 and 0.2 mL FluoSpheres (7.8×10^8 spheres) in a 1.5 mL Eppendorf snap top, polypropylene centrifuge tube and rotated for 30 min at room temperature (RT). Then 2.8 mg EDAC (1-ethyl-3-(3-dimethylaminopropyl)carbodiimide hydrochloride, (commercially available) in 0.025 mL MES was added and the tube was rotated for 2 h at RT. Following the addition of 0.005 mL 1 N NaOH and 5.7 mg glycine in 0.025 mL MES, the tube was rotated for 30 min more at RT. The beads were then washed by employing three cycles of centrifugation at 14,000 rpm (20,800× g) in an Eppendorf 5417R centrifuge for 15 min, discarding the resulting supernatant, and resuspending in D-PBS. Storage was at 4° C. in 0.4 mL DPBS containing 0.05% NaN3 (final bead concentration was about 1.95×10^9/mL).
Final bead concentration was 1.95×10^7/mL. […]
Bead binding and localization was assessed at 200× magnification using the same microscopy equipment as described above. […] Finally, the processed images were inverted into black on a white background using Scion Image software (version beta 3b) and the integrated density was measured with the whole field selected.
The incubation time was decreased to 15 min on an orbital shaker, and the washes (3) were carried out using D-PBS containing 0.1% Tween 20 (Sigma). […] TKPPR-bead binding was quantitated in three fields, the other bead types were quantitated in one field only. Bound beads were quantitated by manual counting.

Turning to `CC(O)C(N)C(=O)NC(CCCCN)C(=O)N1CCCC1C(=O)N1CCCC1C(=O)NC(CCCNC(=N)N)C(=O)O` [TKPPR, L-Arginine, L-threonyl-L-lysyl-L-prolyl-L-prolyl] (H-TKPPR-OH; configuration not given here), the “inhibition of bubble binding” value in the assay on HAEC (1% composition bubbles) is listed as 82.7%; in the assay with HAEC (5% composition bubbles), “no inhibition”. Also, the “block of bubble association with HAEC” value with HAEC (Example 7, 10 to 100 μM free TKPPR peptide) is “blocked”. Moreover, the “Bubbles Bound (average of duplicate)” value in the assay with HAEC (competitor 5 microM) came out at 790; in the assay with HAEC (competitor 10 microM), 528; in the assay with HAEC (competitor 25 microM), 106; in the assay with HAEC (competitor 50 microM) it was 56; in the assay with HAEC (competitor 100 microM), 17. In addition, the “Bubbles Bound % of control binding” value in the assay on HAEC (competitor 25 microM, 2% BRU-114 bubbles) stood at 16%. Besides, the “Average % Inhibition of bubble binding” value in the assay with HAEC (free TKPPR 5 μM, 1% composition bubbles) turned out to be 45.7%; in the assay on HAEC (free TKPPR 10 μM, 1% composition bubbles), 79.6%; in the assay with HAEC (free TKPPR 25 μM, 1% composition bubbles), 82.0%; with HAEC (free TKPPR 50 μM, 1% composition bubbles), 92.7%; in the assay with HAEC (free TKPPR 100 μM, 1% composition bubbles), 93.7%. Further, in the assay on HAEC (free TKPPR 100 μM, 5% bubbles (Composition I of Example 5)), the HAEC bubbles bound is 58. For the same compound, the “Integrated density of bound beads” value in assay [1] (Experiment 1, 1.95×10^7 beads/mL, 30 min, HAEC monolayer) came out at 229.97 arbitrary units. For the same compound, the “Number of bound beads” value in assay [1] (Experiment 2, 4.9×10^6 beads/mL, 15 min, manual counting, TKPPR average of three fields, others one field) was 74, 103, 72 (ave. 83).

For the origin of these results see US20020147136A1, “Compounds for targeting endothelial cells, compositions containing the same and methods for their use” (priority 2000, published 2002).
